Assay results from patent US20260234144A1 (TAY THERAPEUTICS LIMITED, priority 2023, published 2026).

Assays:
[1] = system: R213X mutation in the p53 gene, HDQ-P1 cells; assay: Read-through of R213X mutation in HDQ-P1 cells: truncated and full-length p53 by automated capillary electrophoresis western analysis; assay type: cell-based; details: Homo sapiens; for EC (50% of 200 uM G418 response): pC50% NMD: production of truncated p53, concentration giving 50% of the response of 200 μM G418, 24 h; for EC (100% of 200 uM G418 response): pC100% RT: production of full-length p53, concentration giving the same response as 200 μM G418, 24 h
Experimental: The ability of compounds to promote read-through in cells was assessed using the HDQ-P1 cell line which contain the R213X mutation in the p53 gene. […] Changes in the protein levels of p21, a direct downstream target of p53, were also determined as evidence of functional p53 protein production.
HDQ-P1 cells (R213X) were treated with DMSO (0.3%), or test article for 24 h at various concentrations. Cells were washed once with ice cold 1×PBS and lysed in M-Per protein extraction reagent (ThermoFisher), Benzonase® Nuclease and protease inhibitor mixture (Roche) centrifuged at 4° C. for 15 min at 16 000×g, the supernatants, termed cell extracts, were collected and total proteins were quantified with Bradford protein assay kit (ThermoFisher). Briefly, mixtures of cell lysates (protein concentration 0.5 mg/mL) and the fluorescent master mix were heated at 95° C. for 5 min. […] Signals were generated using BioTechne anti-mouse detection module and anti-rabbit NIR detection module. […] As an additional loading control, total protein levels were assessed with the ProteinSimple protein normalisation module. The data were acquired and analysed using the inbuilt Compass software (ProteinSimple) with the high dynamic range detection profile, which uses multiple substrate injections and exposure times. Electropherograms were converted to pseudo-blots and presented in figures for ease of visualization.
Concentration effect curves for both the production of truncated and full-length p53 were analysed using non-linear regression using the CDD Vault from Collaborative Drug Discovery (Burlingame, CA). […] The bottom and top of the curves were constrained to 0 and the maximum measured response respectively. From the fitted curves, the software derived C100% or C50% values (the concentration giving the same or 50% of the response of 200 μM G418) for each compound. The negative logarithm of C50% or C100% is reported as pC50% NMD or pC100% RT for the production of truncated or full-length p53 respectively (Table 2).

[2] = system: R223X stop codon in the mutated luciferase gene, ADXC8 luciferase reporter cell line; assay: cells; assay type: cell-based; details: ADXC8 cells, 24 hours; for Emax / EC (100% of 200 uM G418 response): 24 h; for Emax: read-out: Fold Over Control, maximum fold response relative to 200 μM G418; for EC (100% of 200 uM G418 response): read-out: pC100%, negative logarithm of the concentration giving the same response as 200 μM G418; for Fold Over Control: maximum fold response relative to 200 μM G418; for pC100%: negative logarithm of the concentration giving the same response as 200 μM G418

| SMILES | EC (50% of 200 uM G418 response) [1] [µM] | EC (100% of 200 uM G418 response) [1] [µM] | Emax [2] [%] | EC (100% of 200 uM G418 response) [2] [µM] | Fold Over Control [2] | pC100% [2] |
| --- | --- | --- | --- | --- | --- | --- |
| Cc1c2c(nc3nc(NC4CCN(Cc5cccc(F)c5O)CC4)nc(N)c13)CCC2 [Example 532] | 0.1 to 1 | 1 to 10 | 100 to 3000 | 0.01 to 0.1 |  |  |
| CNc1cc(N[C@H]2CN(C)C[C@H]2F)nc2nc3c(c(C)c12)CCC3 [Example 422] | 0.1 to 1 | 0.1 to 1 |  | 0.1 to 1 |  |  |
| CCNc1nc(N[C@@H]2CCN(C)C2)nc2nc3c(c(C)c12)CCC3 [Example 234, (R)—N^4-ethyl-5-methyl-N^2-(1-methylpyrrolidin-3-yl)-7,8-dihydro-6H-cyclopenta[5,6]pyrido[2,3-d]pyrimidine-2,4-diamine] | 0.1 to 1 | 0.1 to 1 |  | 0.1 to 1 |  |  |
| CNc1nc(N[C@H]2CNC[C@H]2F)nc2nc3c(c(C)c12)CCC3 [Example 343] | 1 to 10 | 1 to 10 | 100 to 3000 | 0.1 to 1 |  |  |
| Cc1nc2nc(NC3CCN(Cc4cccc(F)c4O)CC3)nc(N)c2c2c1CCC2 [Example 531] | 1 to 10 | 1 to 10 | 100 to 3000 | 0.1 to 1 |  |  |
| CNc1nc(N[C@H]2CN(C)C[C@@H]2O)nc2nc(C)cc(C)c12 [Example 338] | 1 to 10 |  | 100 to 3000 | 1 to 10 |  |  |
| Cc1cc(C)c2c(N)nc(N[C@@H]3CCCNC3)nc2n1 [Example 225, (R)-5,7-dimethyl-N^2-(piperidin-3-yl)pyrido[2,3-d]pyrimidine-2,4-diamine] | 0.1 to 1 | 1 to 10 |  | 0.1 to 1 |  |  |
| CNc1nc(N[C@@H]2CCNC2)nc2nc(C)c3c(c12)CCC3 [Example 304] | 1 to 10 | 1 to 10 |  | 0.1 to 1 |  |  |
| Cc1c2c(nc3nc(NC4CCN(Cc5ccc(C#N)cc5O)CC4)nc(N)c13)CCC2 [Example 526, 4-((4-((4-amino-5-methyl-7,8-dihydro-6H-cyclopenta[5,6]pyrido[2,3-d]pyrimidin-2-yl)amino)piperidin-1-yl)methyl)-3-hydroxybenzonitrile] | 0.1 to 1 | 1 to 10 | 100 to 3000 | 0.01 to 0.1 |  |  |
| CNc1nc(N[C@H]2CN(C)C[C@H]2F)nc2nc3c(c(C)c12)CCC3 [Example 233, N^2-((3S,4R)-4-fluoro-1-methylpyrrolidin-3-yl)-N^4,5-dimethyl-7,8-dihydro-6H-cyclopenta[5,6]pyrido[2,3-d]pyrimidine-2,4-diamine] | 0.1 to 1 |  | 100 to 3000 | 0.1 to 1 |  |  |
| CCNc1nc(N[C@@H]2CCN(C)C2)nc2nc(C)c3c(c12)CCC3 [Example 396] | 1 to 10 | 1 to 10 |  | 0.1 to 1 |  |  |
| CNc1nc(N[C@H]2CN(C)C[C@@H]2OC)nc2nc(C)cc(C)c12 [Example 228, N^2-((3S,4S)-4-methoxy-1-methylpyrrolidin-3-yl)-N^4,5,7-trimethylpyrido[2,3-d]pyrimidine-2,4-diamine] | 0.1 to 1 | 1 to 10 | 100 to 3000 | 0.1 to 1 |  |  |
| CO[C@H]1CNC[C@@H]1Nc1nc(N)c2c(C)cc(C)nc2n1 [Example 583] | 1 to 10 |  |  | 0.01 to 0.1 |  |  |
| CNc1nc(N[C@]2(C)CCN(C)C2)nc2nc(C)cc(C)c12 [Example 388] |  |  | 0 to 100 | > 31.6 |  |  |
| Cc1c2c(nc3nc(NC4CCN(Cc5cn[nH]c5)CC4)nc(N)c13)CCC2 [Example 661] |  |  | 100 to 3000 | 1 to 10 |  |  |
| CNc1nc(NC2CNCC2(F)F)nc2nc(C)cc(C)c12 (single isomer, unassigned) [Example 437] |  |  |  |  | ## (Fold over Ctrl > 1 ≤ 30) | + (pC100% > 4.0 ≤ 5.0) |
| CNc1nc(N[C@H]2CN[C@H](C(F)F)C2)nc2nc(C)cc(C)c12 [Example 407] |  |  |  | 1 to 10 |  |  |
| CNc1cc(N[C@@H]2CCNC2)nc2nc(C)cc(C)c12 [Example 256, (R)—N^4,5,7-trimethyl-N^2-(pyrrolidin-3-yl)-1,8-naphthyridine-2,4-diamine] |  |  |  | 0.1 to 1 |  |  |
| Cc1cc(C)c2c(N)nc(NCCCN3CCC4(CCOCC4)C3)nc2n1 [Example 189] |  |  | 0 to 100 | > 31.6 |  |  |
| CNc1nc(NC2CCN(Cc3ccc(C#N)cc3)CC2)nc2nc(C)cc(C)c12 [Example 580] |  |  | 100 to 3000 | 1 to 10 |  |  |
| CNc1nc(N[C@@H]2CN[C@@H](C)C2)nc2nc(C)cc(C)c12 [Example 374] |  |  | 100 to 3000 | 10 to 100 |  |  |

| SMILES | EC (50% of 200 uM G418 response) [1] [µM] | EC (100% of 200 uM G418 response) [1] [µM] | Emax [2] [%] | EC (100% of 200 uM G418 response) [2] [µM] | Fold Over Control [2] | pC100% [2] |
| --- | --- | --- | --- | --- | --- | --- |
| Cc1cc(C)c2c(N)nc(NC3CCN(Cc4nnc[nH]4)CC3)nc2n1 [Example 483] |  |  | 0 to 100 | > 31.6 |  |  |
| CNc1nc(N[C@H]2CNC[C@@H](O)C2)nc2nc(C)cc(C)c12 [Example 610] |  |  |  | 1 to 10 |  |  |
| Cc1cccc(CN2CCC(Nc3nc(N)c4c(C)cc(C)nc4n3)CC2)c1 [Example 549] |  |  | 100 to 3000 | 1 to 10 |  |  |
| CNc1nc(NC2CC3CCC2N3)nc2nc(C)cc(C)c12 (stereo not drawn) [Example 518, N^2-(-7-azabicyclo[2.2.1]heptan-2-yl)-N^4,5,7-trimethylpyrido[2,3-d]pyrimidine-2,4-diamine] |  |  |  |  | ## (Fold over Ctrl > 1 ≤ 30) | + (pC100% > 4.0 ≤ 5.0) |
| Cc1cnc2nc(NC3CCN(C)CC3)nc(N)c2c1 [Example 4, 6-methyl-N^2-(1-methylpiperidin-4-yl)pyrido[2,3-d]pyrimidine-2,4-diamine] |  |  | 100 to 3000 | 10 to 100 |  |  |
| Cc1cc(C)c2c(N)nc(NCCN3CC4(CCCO4)C3)nc2n1 [Example 167] |  |  | 0 to 100 | > 31.6 |  |  |
| CNc1nc(N[C@H]2C[C@H](C)N(C)C2)nc2nc(C)cc(C)c12 [Example 373] |  |  | 100 to 3000 | 1 to 10 |  |  |
| Cc1cc(C)c2c(N)nc(NC3CCN(Cc4ccccc4S(C)(=O)=O)CC3)nc2n1 [Example 498] |  |  | 0 to 100 | > 31.6 |  |  |
| Cc1cc(C)c2c(N)nc(NC3CCCN(C(=O)OC(C)(C)C)CC3)nc2n1 (stereo not drawn) [Example 131, tert-butyl 4-((4-amino-5,7-dimethylpyrido[2,3-d]pyrimidin-2-yl)amino)azepane-1-carboxylate] |  |  | 0 to 100 | > 100 |  |  |
| Cc1cc(C)c2c(N3CCOCC3)nc(NC3CCN(C)CC3)nc2n1 [Example 266] |  |  | 0 to 100 | > 100 |  |  |
| CNc1nc(NC23CCCN(CC2)C3)nc2nc(C)cc(C)c12 (stereo not drawn) [Example 416] |  |  | 0 to 100 | > 31.6 |  |  |
| CNc1nc(NC2CCN(C)CC2)nc2ncccc12 [Example 39, N^4-methyl-N^2-(1-methylpiperidin-4-yl)pyrido[2,3-d]pyrimidine-2,4-diamine] |  |  | 100 to 3000 | 10 to 100 |  |  |
| CCC(=O)O[C@H]1CN(C)C[C@@H]1Nc1nc(NC)c2c(C)c3c(nc2n1)CCC3 [Example 682] |  |  | 100 to 3000 | 0.1 to 1 |  |  |
| CNc1nc(N[C@H]2CN(C3CCC3)C[C@H]2F)nc2nc(C)cc(C)c12 [Example 627] |  |  | 100 to 3000 | 10 to 100 |  |  |
| Cc1cc(C)c2c(N)nc(NC3CNC3)nc2n1 [Example 214] |  |  | 0 to 100 | > 31.6 |  |  |
| Cc1cc(C)c2c(N)nc(NC3CCN(Cc4cccc(S(C)(=O)=O)c4)CC3)nc2n1 [Example 496] |  |  | 100 to 3000 | 10 to 100 |  |  |
| CC(C)c1cnc2nc(NC3CCN(C)CC3)nc(N)c2c1 [Example 276] |  |  | 100 to 3000 | 10 to 100 |  |  |
| CCCNc1nc(N[C@@H]2CCN(C)C2)nc2nc(C)cc(C)c12 [Example 390] |  |  | 100 to 3000 | 1 to 10 |  |  |
| Cc1cc(C)c2c(N)nc(NC[C@H]3CN(C(=O)OC(C)(C)C)CCO3)nc2n1 [Example 138] |  |  | 0 to 100 | > 100 |  |  |
| Cc1nc2nc(NC3CCN(C)CC3)nc(N)c2c(C)c1C [Example 121, 5,6,7-trimethyl-N2-(1-methylpiperidin-4-yl)pyrido[2,3-d]pyrimidine-2,4-diamine] |  |  | 100 to 3000 | 1 to 10 |  |  |
